Data set [1] in a line: Cmax in rat at 10 mg/kg, po. In kind it is ADME, organism-based. More on the design: dose 10 mg/kg, route oral. As to conditions: in vivo.
The nature of data set [2]: Thermodynamic solubility of the compound in aqueous buffer at pH 7.4 at 37 degC by HPLC-UV analysis. It counts as physicochemical. As to conditions: read-out: Therm_solubility.
The nature of data set [3]: Cmax in rat at 1 mg/kg, iv. In kind it is ADME, organism-based. Details: dose 1 mg/kg, route intravenous. As to conditions: in vivo.
Data set [4] can be described thus: Volume of distribution at steady state in rat at 1 mg/kg, iv. As to conditions: in vivo, read-out: Vdss. Details: dose 1 mg/kg, route intravenous. In kind it is ADME, organism-based.
Data set [5] can be described thus: Clearance in rat at 1 mg/kg, iv. It counts as ADME, organism-based. Details: dose 1 mg/kg, route intravenous. As to conditions: in vivo.
The nature of data set [6]: Primary phase half life in rat at 1 mg/kg, iv. It counts as ADME, organism-based. Details: dose 1 mg/kg, route intravenous. As to conditions: in vivo, read-out: alphat1/2.
Data set [7] in a line: AUC (0 to infinity) in rat at 1 mg/kg, iv. It counts as ADME, organism-based. Details: time infinity, dose 1 mg/kg, route intravenous. As to conditions: plasma.
A short description of data set [8]: Apparent permeability from basolateral to apical side in human Caco2 cells at 12.5 uM. It counts as ADME, cell-based. As to conditions: Caco-2. On the technique in general: Passage across Caco-2 layers is used to estimate intestinal permeability.
The nature of data set [9]: Apparent permeability from apical to basolateral side in human Caco2 cells at 12.5 uM. It counts as ADME, cell-based. As to conditions: Caco-2.
Data set [10] is described as follows: Oral bioavailability in rat at 10 mg/kg. As to conditions: in vivo. In kind it is ADME, organism-based.
A short description of data set [11]: Terminal half life in rat at 1 mg/kg, iv. Details: dose 1 mg/kg, route intravenous. As to conditions: in vivo, read-out: beta t1/2 (converted). It counts as ADME, organism-based.

Each structure is given as a SMILES string. ≈ marks a conversion by molar mass, not a printed value.

What is called Cmax is the peak of the concentration-time curve. As a reminder, the clearance is a measure of how efficiently the substance is removed, as volume per time. As a reminder, the AUC(0-inf) is the area under the concentration-time curve extrapolated to infinity. Read a low AUC(0-inf) as less exposure. As a reminder, the Papp B→A is how fast a substance crosses the layer from the basolateral side. As a reminder, the Papp A→B is the apparent permeability from the apical to the basolateral side of a cell layer. As usually defined, the bioavailability is dose-corrected exposure relative to a reference, in per cent. On to `Cc1ccc(C(=O)NC2CC2)cc1-c1ccc2c(c1)NC(=O)C21CCCC1`, for which the Cmax in [1] was found to be 367 ng/mL; in [3], 2000 ng/mL. Further, in [2], the solubility thermodynamic turned out to be 3 µg/mL (≈ 8.32 µM). Moreover, the Vd in data set [4] came to 0.8 L/kg. The compound further came in with a clearance in data set [5] of 6.6 mL/min/kg. For the same compound, the half-life was less than 1 h in data set [6] and 5.3 h in [11]. In data set [7], this compound gave an area under the curve AUC(0-inf) of 2530 ng·h/mL. The Papp B→A at 12.5 µM in data set [8] stood at 10 ×10⁻⁶ cm/s. Also, the Papp A→B at 12.5 µM in data set [9] is 18 ×10⁻⁶ cm/s. For the same compound, the bioavailability in data set [10] was 10%.

The values above are taken from ChEMBL document CHEMBL1799962, “Indolin-2-one p38α inhibitors I: design, profiling and crystallographic binding mode” (Bioorg Med Chem Lett, 2011).
